Laboratory results reported in patent US5100914A, “Arylalkoxycoumarins” (BASF Aktiengesellschaft, priority 1988, dated 1992).

What was measured:
[1] = J. Agric. Food Chem. 34 (2), 185-188; cited from earlier work
[2] = target: T1, MAO B (Rattus norvegicus, UniProt P19643); test: determination of monoaminooxidase B inhibition in dilute rat brain homogenate; assay type: biochemical; settings: 20 min; for IC50: 14C-phenylethylamine or 14C-tryptamine 0.4 μmol/l, 37° C., logit-log regression, read-out: IC50 MAO B (mean inhibitory concentration); for MAO B selectivity (IC50 MAO A / IC50 MAO B): selectivity ratio from the two IC50 values
T1 construct: carried out in dilute rat brain homogenate; from tissue; host or cells: rat brain homogenate
T1 sequence (P19643 1-520): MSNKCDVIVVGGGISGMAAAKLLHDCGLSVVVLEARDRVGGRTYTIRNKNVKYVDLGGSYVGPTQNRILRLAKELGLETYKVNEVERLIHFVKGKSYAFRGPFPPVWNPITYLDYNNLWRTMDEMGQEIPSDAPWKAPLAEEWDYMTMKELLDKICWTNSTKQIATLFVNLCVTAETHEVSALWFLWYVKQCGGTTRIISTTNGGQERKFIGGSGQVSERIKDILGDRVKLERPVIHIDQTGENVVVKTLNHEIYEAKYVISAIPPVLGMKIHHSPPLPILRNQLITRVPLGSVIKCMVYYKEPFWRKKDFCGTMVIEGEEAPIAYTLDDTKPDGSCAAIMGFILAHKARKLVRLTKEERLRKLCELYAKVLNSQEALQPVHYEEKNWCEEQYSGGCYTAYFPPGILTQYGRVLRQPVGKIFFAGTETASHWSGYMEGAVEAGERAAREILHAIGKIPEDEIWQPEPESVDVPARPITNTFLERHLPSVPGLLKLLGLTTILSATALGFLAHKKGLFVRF
Experimental: (§1) The MAO-inhibiting activity of the novel compounds can be determined using standard methods. […] This mixture was incubated for 20 minutes at 37° C. […] The blank value was determined in similar mixtures with an incubation time of t =0 min.
(§2) From the inhibitory values determined at the various inhibitor concentrations against the controls, the mean inhibitory concentration (IC50) was calculated by linear regression following logit-log transformation.

[3] = target: T2, MAO A (Rattus norvegicus, UniProt P21396); test: determination of monoaminooxidase A inhibition in dilute rat brain homogenate; assay type: biochemical; settings: 14C-phenylethylamine or 14C-tryptamine 0.4 μmol/l, 20 min, 37° C., logit-log regression, read-out: IC50 MAO A (mean inhibitory concentration)
T2 construct: carried out in dilute rat brain homogenate; from tissue; host or cells: rat brain homogenate
T2 sequence (P21396 1-526): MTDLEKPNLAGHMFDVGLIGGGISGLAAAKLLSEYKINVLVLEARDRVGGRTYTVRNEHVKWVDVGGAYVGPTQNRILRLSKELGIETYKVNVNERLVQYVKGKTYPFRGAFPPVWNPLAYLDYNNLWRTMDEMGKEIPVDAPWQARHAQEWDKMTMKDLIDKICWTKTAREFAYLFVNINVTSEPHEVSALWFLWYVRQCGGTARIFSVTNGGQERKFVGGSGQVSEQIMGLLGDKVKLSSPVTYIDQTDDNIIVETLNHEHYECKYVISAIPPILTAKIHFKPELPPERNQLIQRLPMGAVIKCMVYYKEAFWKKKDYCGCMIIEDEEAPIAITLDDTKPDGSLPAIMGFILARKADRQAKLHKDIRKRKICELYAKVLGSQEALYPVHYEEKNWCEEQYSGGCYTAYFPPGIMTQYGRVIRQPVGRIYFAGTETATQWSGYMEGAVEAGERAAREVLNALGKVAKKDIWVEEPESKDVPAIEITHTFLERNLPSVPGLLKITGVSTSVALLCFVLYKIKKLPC
Experimental: as §1, §2

Question: For `Cc1cc(=O)oc2cc(OCc3c(F)c(F)c(F)c(F)c3F)ccc12` [7-pentafluorophenylmethoxy-4-methylcoumarin], which fungicidal activity [1] is on record?
Answer: has fungicidal activity

Question: What does the source list for `Cc1c(C)c2ccc(OCc3ccc4ccccc4c3)cc2oc1=O` [Example 4, 3,4-Dimethyl-7-(2-naphthyl)-methoxycoumarin]?
Answer: IC50 [2]: 11 nM; MAO B selectivity (IC50 MAO A / IC50 MAO B) [2]: > 900; IC50 [3]: > 10000 nM

Question: Which IC50 [2] does the source give for `Cc1ccc(C)c(COc2ccc3c(C)c(C)c(=O)oc3c2)c1` [Example 10, 3,4-Dimethyl-7-(2,5-dimethylphenyl)-methoxycoumarin] here?
Answer: 3.7 nM

Question: What about the “MAO B selectivity (IC50 MAO A / IC50 MAO B)” value [2] of the same molecule?
Answer: > 2700

Question: What about the IC50 [3] of the same molecule?
Answer: > 10000 nM

Question: Which IC50 [2] does the source give for `CCc1cc2c(C)c(C)c(=O)oc2cc1OCCc1ccccc1` [Example 23, 6-Ethyl-3,4-dimethyl-7-(2-phenyl)-ethoxycoumarin] here?
Answer: 13 nM

Question: What about the “MAO B selectivity (IC50 MAO A / IC50 MAO B)” value [2] of the same molecule?
Answer: > 770

Question: And the IC50 [3]?
Answer: > 10000 nM

Question: Which results are given for `CC(C)c1ccc(COc2ccc3ccc(=O)oc3c2)cc1` [Example 26, 7-(4-Isopropylphenyl)-methoxycoumarin]?
Answer: IC50 [2]: 1.8 nM; MAO B selectivity (IC50 MAO A / IC50 MAO B) [2]: > 5600; IC50 [3]: > 10000 nM

Question: Which IC50 [2] does the source give for `Cc1cc(=O)oc2cc(OCc3ccc(C(C)C)cc3)ccc12` [Example 27, 4-Methyl-7-(4-isopropylphenyl)-methoxycoumarin] here?
Answer: 4.7 nM

Question: And the “MAO B selectivity (IC50 MAO A / IC50 MAO B)” value [2]?
Answer: > 2100

Question: And the IC50 [3]?
Answer: > 10000 nM

Question: Which IC50 [2] does the source give for `Cc1cc2ccc(OCc3ccc(C(C)C)cc3)cc2oc1=O` [Example 28, 3-Methyl-7-(4-isopropylphenyl)-methoxycoumarin] here?
Answer: 2.8 nM

Question: And the “MAO B selectivity (IC50 MAO A / IC50 MAO B)” value [2]?
Answer: > 3600

Question: And the IC50 [3]?
Answer: > 10000 nM

Question: With `Cc1c(Cl)c(=O)oc2cc(OCc3ccc(C(C)C)cc3)ccc12` [Example 33, 3-Chloro-4-methyl-7-(4-isopropylphenyl)-methoxycoumarin] as the molecule, how does the IC50 [2] read?
Answer: 4.3 nM

Question: And the “MAO B selectivity (IC50 MAO A / IC50 MAO B)” value [2]?
Answer: > 2400

Question: What about the IC50 [3] of the same molecule?
Answer: > 10000 nM

Question: Which results are given for `Cc1c(C)c2ccc(OCCCc3ccccc3)cc2oc1=O` [Example 35, 3,4-Dimethyl-7-(3-phenylpropoxy)-coumarin]?
Answer: IC50 [2]: 4.2 nM; MAO B selectivity (IC50 MAO A / IC50 MAO B) [2]: 280; IC50 [3]: 1200 nM

Question: Which IC50 [2] does the source give for `Cc1c(C)c2cc(Cl)c(OCc3ccc(C(C)C)cc3)cc2oc1=O` [Example 38, 6-Chloro-3,4-dimethyl-7-(4-isopropylphenyl)-methoxycoumarin] here?
Answer: 31 nM

Question: And the “MAO B selectivity (IC50 MAO A / IC50 MAO B)” value [2]?
Answer: > 320

Question: What about the IC50 [3] of the same molecule?
Answer: > 10000 nM
